These results are taken from patent publication US9499508B2, “2-pyrones” (MERCK PATENT GMBH, priority 2010, dated 2016).

The subject of assay [1] is calmodulin-like protein (CALML5). The assay can be described thus: cDNA array, gene expression of CALML5. The class given is cell-based. As to conditions: primary epidermal keratinocytes, 24 hours. The method, then: (§1) The assay is carried out using primary epidermal keratinocytes. […] All-trans retinoic acid is used as positive control. The cells are then cultured at 37° C. and under 5% CO2 for 24 hours.
(§2) The mRNA is isolated using the RNEASY Minikit test kit from Qiagen in accordance with the instruction manual. 1 μg of the RNA is then in each case converted into cDNA with the aid of the Firsts Strand cDNA synthesis kit from Roche. The 20 μl of cDNA obtained are diluted 1/10, and 110 μl of TaqMan™ Universal PCR Master Mix are in each case added to 110 μl of the cDNA samples. 100 μl are pipetted per slot into the Custom TaqMan™ array cards. The cards are sealed, centrifuged and then measured using the TaqMan™ 7900HT. The values obtained are standardised. Values less than or equal to −1.5 indicate moderate to strong downregulation of the expression of the genes investigated.

For assay [2], the system named is filaggrin (FLG). Put plainly: cDNA array, gene expression of FLG. Type of assay: cell-based. As to conditions: primary epidermal keratinocytes, 24 hours. On the procedure:
(§3) The assay is carried out using primary epidermal keratinocytes. After incubation at 37° C. and in a 5% CO2 atmosphere for 48 hours, the culture medium (DPBS and HyQtase cell detachment solution) is removed, and the test substances 4-hydroxy-6-methyl-2-pyrone Ia (40 μM) and 3-((E)-3,7-dimethylocta-2,6-dienyl)-4-hydroxy-6-methyl-2-pyrone Ii ([…]) in assay medium (keratinocytes basal medium M2 and supplement mix) are added. All-trans retinoic acid is used as positive control. The cells are then cultured at 37° C. and under 5% CO2 for 24 hours.
as §2

Assay [3] deals with involucrin (IVL). The assay can be described thus: cDNA array, gene expression of IVL. Type of assay: cell-based. The conditions noted are these: primary epidermal keratinocytes, 24 hours. On the procedure:
as §1, §2

Assay [4] relates to loricrin (LOR). Put plainly: cDNA array, gene expression of LOR. The class given is cell-based. As to conditions: primary epidermal keratinocytes, 24 hours. The method, then: as §1, §2
For assay [5], the system named is repetin (RPTN). Put plainly: cDNA array, gene expression of RPTN. The class given is cell-based. As to conditions: primary epidermal keratinocytes, 24 hours. The method, then:
as §1, §2

In assay [6] the test system is calgranulin A (S100A8). The assay can be described thus: cDNA array, gene expression of S100A8. Type of assay: cell-based. As to conditions: primary epidermal keratinocytes, 24 hours. The method, then: as §3, §2
Assay [7] relates to calgranulin B (S100A9). The assay can be described thus: cDNA array, gene expression of S100A9. Type of assay: cell-based. As to conditions: primary epidermal keratinocytes, 24 hours. The method, then: as §3, §2
The subject of assay [8] is transglutaminase 1 (TGM1). Put plainly: cDNA array, gene expression of TGM1. Type of assay: cell-based. The conditions noted are these: primary epidermal keratinocytes, 24 hours. The method, then:
as §3, §2

Assay [9] relates to Corneodesmosin (CDSN). Put plainly: cDNA array, gene expression of CDSN. The conditions noted are these: primary epidermal keratinocytes, 24 hours. Type of assay: cell-based. On the procedure: as §3, §2
(§4) A second group of genes (Table 2) considered encodes for proteins which correlate with cell-cell connections. Corneodesmosin (CDSN), desmoglein 1 (DSG1), desmoplakin (DSP) and desmocollin 3 (DSC3) are tested, the associated regulation factors are shown in Table 2. […] The downregulation of this protein family is known for retinoids.

The subject of assay [10] is desmocollin 3 (DSC3). The assay can be described thus: cDNA array, gene expression of DSC3. The class given is cell-based. The conditions noted are these: primary epidermal keratinocytes, 24 hours. On the procedure:
as §3, §2, §4

Assay [11] deals with desmoglein 1 (DSG1). Put plainly: cDNA array, gene expression of DSG1. The class given is cell-based. As to conditions: primary epidermal keratinocytes, 24 hours. The method, then: as §3, §2, §4
For assay [12], the system named is desmoplakin (DSP). Put plainly: cDNA array, gene expression of DSP. The class given is cell-based. The conditions noted are these: primary epidermal keratinocytes, 24 hours. The method, then:
as §3, §2, §4

The test system of assay [13] is skin explants from the lower abdomen tissue. The assay can be described thus: Ex-vivo study on skin explants, histology. Details: species or system human. On the procedure: Histological explants having an average diameter of 10 mm from the lower abdomen tissue of a person are prepared. The pieces of tissue are stored in BEM medium in a moist, 5% CO2 atmosphere at 37° C. The tissue is divided into 3 batches of 6 explants each.
Batch K represents the negative control. Only the vehicle is applied to batch V. Batch P is treated with 4-hydroxy-6-methyl-2-pyrone Ia (1% in Mygliol/ethanol 80/20). 30 μl of the 1% substance solutions in Myliol/ethanol (80/20) are applied using a round filter paper and allowed to act for 2 hours. Applications are carried out on day 0, 1, 4, 6 and 7.
On the 8th day, 3 pieces of tissue from each batch are fixed in Bouin solution. After fixing for 48 hours, the samples are dehydrated by means of Leica TP 1020 and soaked in paraffin. Tissue sections with a thickness of 5 μm are produced from the paraffin blocks using a microtome and mounted on Superfrost specimen slides. The microscopic investigation is carried out using a Leica Orthoplan microscope after the tissue sections mounted on specimen slides have been stained with Masson-Goldner trichrome stain. In order to be able to assess the effect of the substances, the thickness of the epidermis or the change thereof is measured.

The test system of assay [14] is normal human adipocytes. Put plainly: Lipolysis, unesterified fatty acids liberated from adipocytes. The class given is cell-based. The conditions noted are these: 2 hours; for lipolytic activity, dependence on concentration: 0.25 mM, 0.5 mM, 1 mM and 2 mM. On the procedure: The study is carried out using normal human adipocytes originating from the lower abdomen biopsy of a person. The hypodermis is isolated from the biopsy and incubated at 37° C. for 30 minutes with collagenase solution. The separated adipocytes are washed and diluted with assay medium (MEM without Phenol Red, penicillin 25 UI/ml/streptomycin […], L-glutamine 2 mM, bovine serum albumin (BSA), fatty acid-free: 0.5% (p/v)).
The test solutions or the caffeine reference are added to the cell suspensions, and the mixtures are incubated at 37° C. and in a 5% CO2 atmosphere for 2 hours.
After this time, the unesterified fatty acids liberated from the samples are quantified. The measurement is carried out using a Wako NEFA-C test kit in accordance with the instruction manual.

With `Cc1cc(O)cc(=O)o1` [Ia, 4-hydroxy-6-methyl-2-pyrone], in assay [1] (40 μM), the “CALML5 gene expression, standardised value” (from here on “CALML5 gene expression”) is recorded as −3.14. In assay [2] (40 μM), the “FLG gene expression, standardised value” was 1.01. Besides, in assay [3] (40 μM), the “IVL gene expression, standardised value” is reported as −1.76. The “LOR gene expression, standardised value” in assay [4] (40 μM) is given as −4.56. The “RPTN gene expression, standardised value” in [5] (40 μM) is −3.33. Besides, the “S100A8 gene expression, standardised value” (shortened to “S100A8 gene expression”) in assay [6] (40 μM) is −1.74. Further, in [7] (40 μM), the “S100A9 gene expression, standardised value” (“S100A9 gene expression” below) is given as −2.18. The “TGM1 gene expression, standardised value” in assay [8] (40 μM) is recorded as −1.26. Also, the “CDSN gene expression, regulation factor” value in [9] (40 μM) is given as −2.14. In [10] (40 μM), the “DSC3 gene expression, regulation factor” value is −1.69. Also, the “DSG1 gene expression, regulation factor” value in assay [11] (40 μM) is on record as −1.39. In addition, the “DSP gene expression, regulation factor” value in [12] (40 μM) is listed as −1.40. Moreover, the “collagen network in the dermis along the dermo-epidermal junction zone” value in assay [13] (1% in Mygliol/ethanol 80/20, topical on day 0, 1, 4, 6 and 7, day 8) is on record as “becomes denser”. Besides, the “thicker epidermis compared with the vehicle” value in [13] (1% in Mygliol/ethanol 80/20, topical on day 0, 1, 4, 6 and 7, measured on the 8th day) came to 10%.
On to `COc1cc(C)oc(=O)c1` [Ib, 4-Methoxy-6-methyl-2-pyrone], for which, in assay [14], the “lipolytic activity, dependence on concentration” value is listed as “increase the lipolytic activity as a function of concentration”. The “stimulation of lipolysis (triacylglycerin degradation)” value (from here on “stimulation of lipolysis”) in assay [14] (2 mM) is reported as 82%.
In the case of `CC(C)=CCC/C(C)=C/Cc1c(O)cc(C)oc1=O` [Ii, 3-((E)-3,7-Dimethylocta-2,6-dienyl)-4-hydroxy-6-methyl-2-pyrone], the “CALML5 gene expression” value in [1] (50 μM) is given as −2.58. Also, the “FLG gene expression, standardised value” in [2] (50 μM) was −4.67. The “IVL gene expression, standardised value” in [3] (50 μM) was −3.82. Further, the “LOR gene expression, standardised value” in assay [4] (50 μM) was −1.59. For the same compound, in assay [5] (50 μM), the “RPTN gene expression, standardised value” worked out at 1.57. For the same compound, the “S100A8 gene expression” value in [6] (50 μM) is listed as −2.93. Moreover, the “S100A9 gene expression” value in assay [7] (50 μM) was −1.48. Also, the “TGM1 gene expression, standardised value” in assay [8] (50 μM) was −1.56. Besides, the “CDSN gene expression, regulation factor” value in assay [9] (50 μM) is −13.20. The “DSC3 gene expression, regulation factor” value in assay [10] (50 μM) is −1.14. Also, in assay [11] (50 μM), the “DSG1 gene expression, regulation factor” value is listed as −8.20. Moreover, the “DSP gene expression, regulation factor” value in assay [12] (50 μM) is given as −1.53. Moreover, the “stimulation of lipolysis” value was −60% in assay [14] (1 mM) and −67% in assay [14] (2 mM).
As for `CCCCC(CC)Oc1cc(C)oc(=O)c1` (centres unmarked) [Ij, 4-(1-Ethylpentyloxy)-6-methyl-2-pyrone], the “lipolytic activity, dependence on concentration” value in assay [14] is given as “increase the lipolytic activity as a function of concentration”. In addition, the “stimulation of lipolysis” value in assay [14] (2 mM) came out at 57%.
As for `CC1=C(/C=C/C(C)=C/C=C/C(C)=C/C(=O)O)C(C)(C)CCC1` [all-trans retinoic acid, All-trans retinoic acid, reference compound], the “CALML5 gene expression” value in assay [1] (5 μM) is recorded as −2.93. Moreover, in assay [2] (5 μM), the “FLG gene expression, standardised value” is recorded as −3.20. The “IVL gene expression, standardised value” in [3] (5 μM) was −4.05. Besides, the “LOR gene expression, standardised value” in assay [4] (5 μM) is reported as −7.01. For the same compound, the “RPTN gene expression, standardised value” in assay [5] (5 μM) is reported as −2.56. Besides, in assay [6] (5 μM), the “S100A8 gene expression” value is recorded as −3.26. The “S100A9 gene expression” value in [7] (5 μM) is listed as −3.49. Also, the “TGM1 gene expression, standardised value” in assay [8] (5 μM) was −3.56. Moreover, the “CDSN gene expression, regulation factor” value in [9] (concentration not given) is reported as −2.37. Moreover, in [10] (concentration not given), the “DSC3 gene expression, regulation factor” value is −1.23. The “DSG1 gene expression, regulation factor” value in assay [11] (concentration not given) was −9.22. In assay [12] (concentration not given), the “DSP gene expression, regulation factor” value was −1.56.
